We go through 19 molecules from US9370522B2, “Heterocyclic compounds for the inhibition of PASK” (BioEnergenix, LLC, priority 2009, dated 2016).

The target of the assay is T1, PASK (UniProt #Q96RG2; human recombinant N-terminal GST tagged construct, residues 879-1323) (Homo sapiens, UniProt Q96RG2).
T1 construct: N-terminal GST tagged construct, residues 879-1323; GST (N); made in house; host or cells: insect cells
T1 sequence (Q96RG2 879-1323, stated change not applied): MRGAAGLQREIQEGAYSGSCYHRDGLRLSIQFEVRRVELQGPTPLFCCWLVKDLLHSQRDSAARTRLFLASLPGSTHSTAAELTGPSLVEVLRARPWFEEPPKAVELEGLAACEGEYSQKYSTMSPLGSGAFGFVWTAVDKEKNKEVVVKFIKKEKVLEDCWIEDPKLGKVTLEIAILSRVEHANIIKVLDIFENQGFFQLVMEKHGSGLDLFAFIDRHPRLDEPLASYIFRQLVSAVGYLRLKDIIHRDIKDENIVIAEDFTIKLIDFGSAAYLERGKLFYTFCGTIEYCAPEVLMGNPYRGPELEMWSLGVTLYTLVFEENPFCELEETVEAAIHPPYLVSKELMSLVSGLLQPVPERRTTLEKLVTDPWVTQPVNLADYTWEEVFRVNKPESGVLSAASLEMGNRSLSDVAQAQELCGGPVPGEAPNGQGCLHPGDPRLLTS
The assay can be described thus: 33P-ATP radiometric PASK kinase assay (P81 phosphocellulose, scintillation counting). The assay is classed as biochemical. The following applies: Table 2, Myelin Basic Protein 20 μM, 120 min room temperature, average of all trials, read-out: IC50 Kinase Domain. Here is the method: Purified PASK (UniProt #Q96RG2; human recombinant N-terminal GST tagged construct, residues 879-1323) from insect cells (final concentration 5 nM) is added to freshly prepared Base Reaction Buffer containing 20 mM Hepes (pH 7.5), 10 mM MgCl2, 1 mM EGTA, 0.02% Brij35, 0.02 mg/ml BSA, 0.1 mM Na3VO4, 2 mM DTT, 1% DMSO and Myelin Basic Protein (20 μM final). Test compounds in DMSO are then added and the mixture, followed by delivery of ^33P-ATP (specific activity 0.01 μCi/μl final) to initiate the reaction. The kinase reaction is incubated for 120 min at room temperature. The entire reaction mixture is washed through onto a P81 Phosphocellulose paper and washed three times for 10 minutes in 75 mM phosphoric acid and once in methanol prior to drying and scintillation counting. When the assay was repeated for a given compound, the activity data is based on the average of all trials.
`O=C(O)c1ccc2nc(-c3ccco3)c(-c3ccccc3)nc2c1` [Example 12, 2-(Furan-2-yl)-3-phenylquinoxaline-6-carboxylic acid]: the 50% inhibitory concentration (IC50) is ≤ 10 µM. In the case of `O=C(O)c1ccc2nc(-c3ccccc3)c(-c3ccc(C(F)(F)F)cc3)nc2c1` [Example 13, 2-Phenyl-3-(4-(trifluoromethyl)phenyl)quinoxaline-6-carboxylic acid], the IC50 was ≤ 10 µM. In the case of `Cc1nc2cc(C(=O)O)ccc2nc1-c1ccccc1` [Example 14, 3-Methyl-2-phenylquinoxaline-6-carboxylic acid], the IC50 is ≥ 10 µM. The value for `Cc1ccc(-c2nc3cc(C(=O)O)ccc3nc2-c2ccccc2)cc1` [Example 15, 2-Phenyl-3-p-tolylquinoxaline-6-carboxylic acid] was ≤ 10 µM; that for `CCOc1ccc(-c2nc3cc(C(=O)O)ccc3nc2-c2ccccc2)cc1` [Example 16, 3-(4-Ethoxyphenyl)-2-phenylquinoxaline-6-carboxylic acid] was ≤ 10 µM; that for `COc1ccc(-c2nc3cc(C(=O)O)ccc3nc2-c2ccccc2)cc1OC` [Example 17, 3-(3,4-Dimethoxyphenyl)-2-phenylquinoxaline-6-carboxylic acid] was ≤ 10 µM. The value for `O=C(O)c1ccc2nc(-c3ccccc3)c(-c3ccc4ccccc4c3)nc2c1` [Example 18, 3-(Naphthalen-2-yl)-2-phenylquinoxaline-6-carboxylic acid] was ≤ 10 µM; that for `O=C(O)c1ccc2nc(-c3ccccc3)c(-c3cccc4ccccc34)nc2c1` [Example 19, 3-(Naphthalene-1-yl)-2-phenylquinoxaline-6-carboxylic acid] was ≤ 10 µM. With `O=C(O)c1ccc2nc(-c3ccccc3)c(-c3ccc4c(c3)OCO4)nc2c1` [Example 20, 3-(Benzo[d][1,3]dioxol-5-yl)-2-phenylquinoxaline-6-carboxylic acid], the IC50 was ≤ 10 µM. The value for `O=C(O)c1ccc2nc(-c3ccccc3)c(-c3ccncc3)nc2c1` [Example 21, 2-Phenyl-3-(pyridin-4-yl)quinoxaline-6-carboxylic acid] was ≤ 10 µM; that for `N#Cc1ccc(-c2nc3cc(C(=O)O)ccc3nc2-c2ccccc2)cc1` [Example 22, 3-(4-Cyanophenyl)-2-phenylquinoxaline-6-carboxylic acid] was ≤ 10 µM; that for `COc1ccc(-c2nc3cc(C(=O)O)ccc3nc2-c2ccccc2)cc1` [Example 23, 3-(4-Methoxyphenyl)-2-phenylquinoxaline-6-carboxylic acid] was ≤ 10 µM. The value for `O=C(O)c1ccc2nc(-c3ccccc3)c(-c3ccccc3-c3ccccc3)nc2c1` [Example 24, 3-(Biphenyl-2-yl)-2-phenylquinoxaline-6-carboxylic acid] was ≥ 10 µM. Under `O=C(O)c1cc2nc(-c3ccc(F)cc3)c(-c3ccc(F)cc3)nc2cc1O` [Example 25, 2,3-Bis(4-fluorophenyl)-7-hydroxyquinoxaline-6-carboxylic acid] stands ≤ 10 µM. As for `O=C(O)c1cc2nc(-c3ccc(Cl)cc3)c(-c3ccc(Cl)cc3)nc2cc1O` [Example 26, 2,3-Bis(4-chlorophenyl)-7-hydroxyquinoxaline-6-carboxylic acid], the IC50 is ≥ 10 µM. The value for `COc1ccc(-c2nc3cc(O)c(C(=O)O)cc3nc2-c2ccc(OC)cc2)cc1` [Example 27, 7-Hydroxy-2,3-bis(4-methoxyphenyl)quinoxaline-6-carboxylic acid] was ≤ 10 µM; that for `O=C(O)c1cc2nc(-c3ccc(O)cc3)c(-c3ccc(O)cc3)nc2cc1O` [Example 28, 7-Hydroxy-2,3-bis(4-hydroxyphenyl)quinoxaline-6-carboxylic acid] was ≤ 10 µM; that for `O=C(O)c1cc2nc(-c3cccc(O)c3)c(-c3cccc(O)c3)nc2cc1O` [Example 29, 7-Hydroxy-2,3-bis(3-hydroxyphenyl)quinoxaline-6-carboxylic acid] was ≥ 10 µM. The value for `O=C(O)c1ccc2nc(-c3ccccc3)c(-c3ccc(Cl)cc3)nc2c1` [Example 30, 3-(4-Chlorophenyl)-2-phenylquinoxaline-6-carboxylic acid] was ≤ 10 µM.
